Measured values taken from paper PMC9701171 (Journal of pharmaceutical and biomedical analysis, 2022).
Like-named read-outs stand apart in the source and are kept apart here.

Assays:
HbA [1] = target: T1, HbA (Homo sapiens, UniProt P69905); test: Steady-state concentration-dependent HbA binding; conditions: for n (Hill coefficient): SS concentration-dependency; for fold enhancement of binding affinity (improvement of KD) relative to 5-HMF: compared to 5-HMF
HbA [2] = target: T1, HbA; test: Time-dependent HbA binding kinetics; conditions: for time to equilibration with HbA: low [AEH]0, assuming first-order conditions; for time to achieve steady state (SS): 0.2 mM HbA, pilot observations
HbA [3] = target: T1, HbA; conditions: cited from earlier work
HbS = conditions: cited from earlier work
[4] = Reference Method, sigmoidal Bmax model, PE (COV)

T1 sequence (P69905 2-142 limits assumed): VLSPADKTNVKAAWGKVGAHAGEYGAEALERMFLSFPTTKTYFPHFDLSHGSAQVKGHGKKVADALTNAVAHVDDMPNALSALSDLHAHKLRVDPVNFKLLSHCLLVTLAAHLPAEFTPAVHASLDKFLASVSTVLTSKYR
T1 sequence (P68871 2-147 partner limits assumed): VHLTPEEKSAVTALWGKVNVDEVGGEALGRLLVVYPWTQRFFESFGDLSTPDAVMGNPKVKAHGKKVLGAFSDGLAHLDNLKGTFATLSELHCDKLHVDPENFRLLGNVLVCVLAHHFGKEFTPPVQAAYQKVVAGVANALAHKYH

SMILES: O=Cc1ccc(C=O)o1 [2,5-DMF, 2,5-Furandicarboxaldehyde]
- Kd (HbA [1]): 190 µM
- n (Hill coefficient) (HbA [1]; sigmoidal Bmax model, PE (COV)): 1.7(21%)
- fold enhancement of binding affinity (improvement of KD) relative to 5-HMF (HbA [1]): 2 fold
- Kd (HbA [2]): 120 µM
- koff (HbA [2]; read-out: koff (first-order dissociation rate constant)): 1.81e-05 s⁻¹

SMILES: O=Cc1ccc(CO)o1 [5-HMF, 5-Hydroxymethyl-2-furfural]
- n (Hill coefficient) (HbA [1]; sigmoidal Bmax model, PE (COV)): 1.1 (10%)
- Bmax (HbA [1]; Universal Method, sigmoidal Bmax model, PE (COV)): 0.20 (6%)
- time to equilibration with HbA (HbA [2]): 12 to 20 h
- time to approach equilibrium (HbA [3]; 5-HMF in the presence of HbA): 24 to 30 h
- Bmax (HbA [3]; [4]): 0.092 (10%)
- Bmax / HbA0 (HbA [3]; [4]): 0.74 (10%)
- Kd (HbA [3]; [4]): 280 µM
- Kd (HbA [3]; read-out: binding affinity, 5-HMF in the presence of HbA): 250 µM

SMILES: CC(C)n1nccc1-c1ncccc1COc1cccc(O)c1C=O [GBT-440]
- Kd (HbA [1]): 110 µM
- n (Hill coefficient) (HbA [1]; sigmoidal Bmax model, PE (COV)): 1.6 (16%)
- HbA modified to the HbA-AEH adduct at saturation (HbA [1]; steady state, HbA solution): about 50%
- time to achieve steady state (SS) (HbA [2]): ≤ 120 s

SMILES: COc1ccc(OCc2ccccn2)c(C=O)c1 [INN-310]
- n (Hill coefficient) (HbA [1]; sigmoidal Bmax model, PE (COV)): 2.4 (20%)
- HbS-AEH adduct (Hb modification) (HbS): 100%

SMILES: O=Cc1c(O)cccc1OCc1cccc(CO)n1 [VZHE-039]
- n (Hill coefficient) (HbA [1]; sigmoidal Bmax model, PE (COV)): 1.9 (34%)
- fold enhancement of binding affinity (improvement of KD) relative to 5-HMF (HbA [1]): less than 5 fold
- time to achieve steady state (SS) (HbA [2]): < 360 s
- fold shorter t1/2^eq relative to 5-HMF (HbA [2]; current experimental conditions): more than 50 fold
- time to equilibration with HbA (HbA [2]): less than half an hour
- HbS-AEH adduct (Hb modification) (HbS): 100%

SMILES: COc1cc(C=O)ccc1O [Vanillin, 4-Hydroxy-5-methoxybenzaldehyde]
- Kd (HbA [1]): 1700 µM
- HbA modification (HbA [1]; 5.8 mM, initial pilot study): < 100%
- Kd (HbA [2]): 4300 µM
